In US12533339B2, “Small molecule antiviral drug treatment for human papillomavirus infections” (THE TRUSTEES OF INDIANA UNIVERSITY, priority 2020, dated 2026):
Read-outs that look alike come from different tables or passages of the source.

Tests used:
E6C51S/E6AP [1] = biological target: T1, E6C51S/E6AP (Human papillomavirus type 16, UniProt P03126, C58S); assay: E6/E6AP binding assay (amylose-bound MBP-16E6, E6AP-BAP activity), C51S 16E6; set-up: species or system HPV-16; conditions: for % Inhibition @ 10 μM E6C51S/E6AP: 10 μM compound; for % Inhibition @ 100 μM E6C51S/E6AP: 100 μM compound
E6 WT/E6AP [2] = biological target: T2, E6 WT/E6AP (Human papillomavirus type 16, UniProt P03126); assay: biochemical; format: binding; conditions: at 24 h; for IC50: 2 μM E6 WT pre-incubated with compound; for Emax: E6 WT, read-out: BLI maximal Inhibition (max %) E6 WT/E6AP
E6 WT/E6AP [3] = biological target: T2, E6 WT/E6AP; assay: biochemical; format: binding; conditions: WT 16E6; for inhibition at 10 µM: 10 μM compound; for inhibition at 100 µM: 100 μM compound
E6 WT/E6AP [4] = biological target: T2, E6 WT/E6AP; assay: biochemical; format: binding; conditions: for Emax: 24 h, read-out: FP maximal inhibition (max %) E6 WT/E6AP; for IC50: FP IC50 at 24 h (μM) E6 WT/E6AP
E6C51S/E6AP [5] = biological target: T1, E6C51S/E6AP; assay: BLI binding assay, E6 C51S binding to captured E6AP; set-up: species or system HPV-16; conditions: at 24 h; E6 C51S

T2 sequence (P03126 8-158): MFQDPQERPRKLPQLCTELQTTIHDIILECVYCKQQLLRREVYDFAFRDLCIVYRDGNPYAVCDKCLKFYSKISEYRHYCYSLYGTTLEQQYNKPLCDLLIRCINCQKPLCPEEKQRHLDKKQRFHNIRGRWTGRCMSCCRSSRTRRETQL
T1 sequence (P03126 whole entry C58S, looked up): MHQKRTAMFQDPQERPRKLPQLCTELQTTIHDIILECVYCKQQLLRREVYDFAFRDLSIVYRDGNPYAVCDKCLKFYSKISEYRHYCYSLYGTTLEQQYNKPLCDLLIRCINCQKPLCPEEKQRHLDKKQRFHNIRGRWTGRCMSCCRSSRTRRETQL

Row | SMILES | % Inhibition @ 10 μM E6C51S/E6AP (E6C51S/E6AP [1]) | % Inhibition @ 100 μM E6C51S/E6AP (E6C51S/E6AP [1]) | IC50 (E6 WT/E6AP [2]) | Emax (E6 WT/E6AP [2]) | inhibition at 10 µM (E6 WT/E6AP [3]) | inhibition at 100 µM (E6 WT/E6AP [3]) | Emax (E6 WT/E6AP [4]) | IC50 (E6 WT/E6AP [4]) | BLI maximal Inhibition (max %) E6C51S/E6AP (E6C51S/E6AP [5]) | FP maximal inhibition (max %) E6 WT/E6AP (E6 WT/E6AP [4]; at 24 h)
1 | C=CC(=O)N1CCN(c2nc(NCc3ccccc3)nc3sc4c(c23)CCCC4)CC1 [EIN-134, 1-(4-(2-(benzylamino)-5,6,7,8-tetrahydrobenzo[4,5]thieno[2,3-d]pyrimidin-4-yl)piperazin-1-yl)prop-2-en-1-one] | 0% | 0% | 32.6 ± 19.2 µM | 100% | 18 ± 6% | 35 ± 4% | 11% | 12.1 ± 0.7 µM | – | –
2 | CC#CC(=O)N1CCN(c2nc(CCc3cccc(OC)c3)nc3sc4c(c23)CCCC4)CC1 [EIN-147, 1-(4-(2-(3-methoxyphenethyl)-5,6,7,8-tetrahydrobenzo[4,5]thieno[2,3-d]pyrimidin-4-yl)piperazin-1-yl)but-2-yn-1-one] | – | – | – | 100% | – | – | – | – | (max 100%) | –
3 | C=CC(=O)N1CCN(c2nc(-c3ccccc3)nc3sc4c(c23)CCCC4)CC1 [EIN-133, 1-(4-(2-phenyl-5,6,7,8-tetrahydrobenzo[4,5]thieno[2,3-d]pyrimidin-4-yl)piperazin-1-yl)prop-2-en-1-one] | 0% | 0% | 14.9 ± 6.6 µM | 60% | 26 ± 7% | 41 ± 5% | 9% | 10.4 ± 0.7 µM | – | –
4 | C=CC(=O)N1CCN(c2nc(CCc3cccc(OC)c3)nc3sc4c(c23)CCCC4)CC1 [EIN-143, 1-(4-(2-(3-methoxyphenethyl)-5,6,7,8-tetrahydrobenzo[4,5]thieno[2,3-d]pyrimidin-4-yl)piperazin-1-yl)prop-2-en-1-one] | 19 ± 7% | 23 ± 10% | 2.5 ± 0.5 µM | 100% | 44 ± 9% | 78 ± 3% | – | – | – | (max 93%)
5 | C=CC(=O)N1CCN(c2nc(CCc3cccc(F)c3)nc3sc4c(c23)CCCC4)CC1 [EIN-137, 1-(4-(2-(3-fluorophenethyl)-5,6,7,8-tetrahydrobenzo[4,5]thieno[2,3-d]pyrimidin-4-yl)piperazin-1-yl)prop-2-en-1-one] | 15 ± 3% | 16 ± 5% | 4.9 ± 0.6 µM | 90% | 35 ± 4% | 56 ± 4% | – | – | – | –
6 | C=CC(=O)N1CCN(c2nc(CCc3ccc(F)cc3)nc3sc4c(c23)CCCC4)CC1 [EIN-136, 1-(4-(2-(4-fluorophenethyl)-5,6,7,8-tetrahydrobenzo[4,5]thieno[2,3-d]pyrimidin-4-yl)piperazin-1-yl)prop-2-en-1-one] | – | – | 2.7 ± 0.3 µM | 100% | 41 ± 7% | 69 ± 2% | 55% | 12 ± 0.9 µM | – | –
7 | C=CC(=O)N1CCN(c2nc(-c3ccc(OC)cc3)nc3cccnc23)CC1 [EIN-165, 1-(4-(2-(4-methoxyphenyl)pyrido[3,2-d]pyrimidin-4-yl)piperazin-1-yl)prop-2-en-1-one] | – | – | – | – | – | – | 100% | 38.2 ± 2.1 µM | – | –
8 | C=CC(=O)N1CCN(c2nc(-c3ccc(OC)cc3F)nc3ccccc23)CC1 [EIN-164, 1-(4-(2-(2-fluoro-4-methoxyphenyl)quinazolin-4-yl)piperazin-1-yl)prop-2-en-1-one] | – | – | – | – | – | – | 100% | 22.9 ± 1.3 µM | – | –
9 | C=CC(=O)N1CCN(c2nc(Cc3ccccc3)nc3sc4c(c23)CCCC4)CC1 [EIN-135, 1-(4-(2-benzyl-5,6,7,8-tetrahydrobenzo[4,5]thieno[2,3-d]pyrimidin-4-yl)piperazin-1-yl)prop-2-en-1-one] | 12 ± 3% | 25 ± 4% | 10.9 ± 3.4 µM | 85% | 0% | 52 ± 5% | 27% | 15.4 ± 0.4 µM | – | –
10 | C=CC(=O)N1CCN(c2nc(CCc3ccccc3F)nc3sc4c(c23)CCCC4)CC1 [EIN-138, 1-(4-(2-(2-fluorophenethyl)-5,6,7,8-tetrahydrobenzo[4,5]thieno[2,3-d]pyrimidin-4-yl)piperazin-1-yl)prop-2-en-1-one] | 16 ± 6% | 19 ± 7% | 4.1 ± 0.5 µM | 90% | 20 ± 6% | 57 ± 3% | – | – | – | –
11 | C=CC(=O)N1CCN(c2nc(CCc3cccc(F)c3)nc3ccccc23)CC1 [EIN-158, 1-(4-(2-(3-fluorophenethyl)quinazolin-4-yl)piperazin-1-yl)prop-2-en-1-one] | – | – | – | – | – | – | 100% | 52.8 ± 2.8 µM | – | –
12 | C=CC(=O)N1CCN(c2nc(Cc3ccccc3)nc3ccccc23)CC1 [EIN-156, 1-(4-(2-benzylquinazolin-4-yl)piperazin-1-yl)prop-2-en-1-one] | – | – | – | 100% | – | – | – | – | (max 100%) | –
13 | C=CC(=O)N1CCN(c2nc(-c3ccc(OC(F)(F)F)cc3)nc3ccccc23)CC1 [EIN-162, 1-(4-(2-(4-(trifluoroniethoxy)phenyl)quinazolin-4-yl)piperazin-1-yl)prop-2-en-1-one] | – | – | – | – | – | – | 100% | 105 ± 13.7 µM | – | –
14 | C=CC(=O)N1CCN(c2nc(-c3cccc(OC)c3)nc3ccccc23)CC1 [EIN-159, 1-(4-(2-(3-methoxyphenyl)quinazolin-4-yl)piperazin-1-yl)prop-2-en-1-one] | – | – | – | – | – | – | 91% | 14.5 ± 1.3 µM | – | –
15 | COc1cccc(CCc2nc(N3CCN(C(=O)/C=C/CN(C)C)CC3)c3c4c(sc3n2)CCCC4)c1 [EIN-148, (E)-4-(dimethylamino)-1-(4-(2-(3-methoxyphenethyl)-5,6,7,8-tetrahydrobenzo[4,5]thieno[2,3-d]pyrimidin-4-yl)piperazin-1-yl)but-2-en-1-one] | – | – | 3.3 ± 0.3 µM | 100% | – | – | 100% | 20.4 ± 3 µM | – | –
16 | C=CC(=O)N1CCN(c2nc(N(C)Cc3ccccc3)nc3sc4c(c23)CCCC4)CC1 [EIN-139, 1-(4-(2-(benzyl(methyl)amino)-5,6,7,8-tetrahydrobenzo[4,5]thieno[2,3-d]pyrimidin-4-yl)piperazin-1-yl)prop-2-en-1-one] | 0% | 6 ± 3% | – | – | 13 ± 7% | 21 ± 4% | 8% | 33.1 ± 1.3 µM | – | –
17 | C=CC(=O)N1CCN(c2nc(-c3ccc(OC)cc3)nc3ccccc23)CC1 [EIN-161, 1-(4-(2-(4-methoxyphenyl)quinazolin-4-yl)piperazin-1-yl)prop-2-en-1-one] | – | – | – | – | – | – | 91% | 13.3 ± 1.9 µM | – | –
18 | C=CC(=O)N1CCN(c2nc(CCc3ccccc3OC)nc3sc4c(c23)CCCC4)CC1 [EIN-145, 1-(4-(2-(2-methoxyphenethyl)-5,6,7,8-tetrahydrobenzo[4,5]thieno[2,3-d]pyrimidin-4-yl)piperazin-1-yl)prop-2-en-1-one] | 20 ± 6% | 23 ± 7% | 2 ± 0.9 µM | 65% | 32 ± 4% | 51 ± 2% | 59% | 15 ± 1.2 µM | – | –
19 | C=CC(=O)N1CCN(c2nc(CCc3ccc(OC)cc3)nc3sc4c(c23)CCCC4)CC1 [EIN-144, 1-(4-(2-(4-methoxyphenethyl)-5,6,7,8-tetrahydrobenzo[4,5]thieno[2,3-d]pyrimidin-4-yl)piperazin-1-yl)prop-2-en-1-one] | 9 ± 9% | 17 ± 5% | 1.6 ± 0.5 µM | 62% | 12 ± 6% | 45 ± 4% | 63% | 14.8 ± 1.2 µM | – | –
